Experimental data reported in US11944622B2 (Annapurna Bio, Inc., priority 2018, dated 2024).

Target: T1, APJ Receptor (Homo sapiens, UniProt P35414)
T1 sequence (P35414 1-380): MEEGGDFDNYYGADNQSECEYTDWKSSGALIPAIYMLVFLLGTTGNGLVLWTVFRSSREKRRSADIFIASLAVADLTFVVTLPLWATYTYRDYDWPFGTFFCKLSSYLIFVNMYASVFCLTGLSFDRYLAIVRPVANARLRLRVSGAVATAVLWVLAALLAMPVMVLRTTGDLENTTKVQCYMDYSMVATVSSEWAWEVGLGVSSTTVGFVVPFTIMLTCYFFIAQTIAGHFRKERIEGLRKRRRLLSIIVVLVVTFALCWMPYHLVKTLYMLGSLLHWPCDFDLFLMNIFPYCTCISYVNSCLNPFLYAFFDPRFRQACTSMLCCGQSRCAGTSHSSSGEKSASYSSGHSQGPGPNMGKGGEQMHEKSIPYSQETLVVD
Assay: APJ cAMP assay (DiscoverX enzyme fragment complementation; inhibition of forskolin-stimulated cAMP)
Type: cell-based
Conditions: CHO-K1 cell line stably expressing the APJ Receptor; EC80 forskolin; 30 minutes at 37° C.; read-out: Potency Range (APJ cAMP EC50)
Summary of the method: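 CHO-K1 cells stably expressing APJ incubated with compound plus EC80 forskolin for 30 min at 37° C. cAMP detected by β-galactosidase enzyme fragment complementation with chemiluminescent read-out; % activity calculated relative to vehicle and maximal controls.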

Structure (SMILES) | EC50 [nM]
CCOc1cccc(-c2nc3nnc(NS(=O)(=O)CC4CC(C)(O)C4)cc3n2-c2c(OC)cccc2OC)n1 (centres unmarked) [Example 128, N-(5-(2,6-Dimethoxyphenyl)-6-(6-ethoxypyridin-2-yl)-5H-imidazo[4,5-c]pyridazin-3-yl)-1-(3-hydroxy-3-methylcyclobutyl)methanesulfonamide] | < 1
COc1cccc(OC)c1-n1c(-c2ccc(C)o2)nc2nnc(NS(C)(=O)=O)cc21 [Example 130, N-(7-(2,6-Dimethoxyphenyl)-8-(5-methylfuran-2-yl)-7H-imidazo[4,5-c]pyridazinyl)methanesulfonamide] | 100 to 10000
CCOc1cccc(-c2nc3nc(O)c(NS(C)(=O)=O)nc3n2-c2c(OC)cccc2OC)n1 [Example 135, N-(1-(2,6-Dimethoxyphenyl)-2-(6-ethoxypyridin-2-yl)-5-hydroxy-1H-imidazo[4,5-b]pyrazin-6-yl)methanesulfonamide] | 1 to 100
CCOc1cccc(-c2nc3nc(N4CC(O)C4)c(NS(C)(=O)=O)nc3n2-c2c(OC)cccc2OC)n1 [Example 136, N-(1-(2,6-Dimethoxyphenyl)-2-(6-ethoxypyridin-2-yl)-5-(3-hydroxyazetidin-1-yl)-1H-imidazo[4,5-b]pyrazin-6-yl)methanesulfonamide] | 100 to 10000
CCOc1cccc(-c2nc3nc(NS(C)(=O)=O)c(Cl)nc3n2-c2c(OC)cccc2OC)n1 [Example 138, N-(6-Chloro-1-(2,6-dimethoxyphenyl)-2-(6-ethoxypyridin-2-yl)-1H-imidazo[4,5-b]pyrazin-5-yl)methanesulfonamide] | 1 to 100
CCOc1cccc(-c2nc3nc(Cl)c(NS(=O)(=O)Cc4ncc(C)cn4)nc3n2-c2c(OC)cccc2OC)n1 [Example 142, N-(5-Chloro-1-(2,6-dimethoxyphenyl)-2-(6-ethoxypyridin-2-yl)-1H-imidazo[4,5-b]pyrazin-6-yl)-1-(5-methylpyrimidin-2-yl)methanesulfonamide] | < 1
CCOc1cccc(-c2nc3nc(N)c(NS(C)(=O)=O)nc3n2-c2c(OC)cccc2OC)n1 [Example 145, N-(5-Amino-1-(2,6-dimethoxyphenyl)-2-(6-ethoxypyridin-2-yl)-1H-imidazo[4,5-b]pyrazin-6-yl)methanesulfonamide] | 1 to 100
CCOc1cccc(-c2nc3nc(F)c(NS(C)(=O)=O)nc3n2-c2c(OC)cccc2OC)n1 [Example 146, N-(1-(2,6-Dimethoxyphenyl)-2-(6-ethoxypyridin-2-yl)-5-fluoro-1H-imidazo[4,5-b]pyrazin-6-yl)methanesulfonamide] | 1 to 100

The remaining lines, values ahead:

EC50 [nM] | Structure (SMILES)
< 1 | CCOc1cccc(-c2nc3nnc(NS(=O)(=O)Cc4ncccn4)cc3n2-c2c(OC)cccc2OC)n1 [Example 127, N-(5-(2,6-Dimethoxyphenyl)-6-(6-ethoxypyridin-2-yl)-5H-imidazo[4,5-c]pyridazin-3-yl)-1-(pyrimidin-2-yl)methanesulfonamide]
1 to 100 | CCOc1cccc(-c2nc3nnc(NS(=O)(=O)Cc4ncc(O)cn4)cc3n2-c2c(OC)cccc2OC)n1 [Example 129, N-(7-(2,6-Dimethoxyphenyl)-8-(6-ethoxypyridin-2-yl)-7H-imidazo[4,5-c]pyridazinyl)-1-(5-hydroxypyrimidin-2-yl)methanesulfonamide]
1 to 100 | COc1cccc(OC)c1-n1c(-c2ccc(C)o2)nc2ncc(NS(C)(=O)=O)nc21 [Example 131, N-(1-(2,6-dimethoxyphenyl)-2-(5-methylfuran-2-yl)-1H-imidazo[4,5-b]pyrazin-6-yl)methanesulfonamide]
100 to 10000 | COc1cccc(OC)c1-n1c(-c2cncc(C)c2)nc2ncc(NS(C)(=O)=O)nc21 [Example 132, N-(1-(2,6-dimethoxyphenyl)-2-(5-methylpyridin-3-yl)-1H-imidazo[4,5-b]pyrazin-6-yl)methanesulfonamide]
100 to 10000 | COc1cccc(OC)c1-n1c(-c2cncc(C)c2)nc2ncc(NS(=O)(=O)C3CC3)nc21 [Example 133, N-(1-(2,6-dimethoxyphenyl)-2-(5-methylpyridin-3-yl)-1H-imidazo[4,5-b]pyrazin-6-yl)cyclopropanesulfonamide]
100 to 10000 | CCCOc1nc2ncc(NS(=O)(=O)c3ccccc3)nc2n1-c1c(OC)cccc1OC [Example 134, N-(1-(2,6-Dimethoxyphenyl)-2-propoxy-1H-imidazo[4,5-b]pyrazin-6-yl) benzenesulfonamide]
1 to 100 | C=Cc1nc2nc(-c3cccc(OCC)n3)n(-c3c(OC)cccc3OC)c2nc1NS(C)(=O)=O [Example 137, N-(1-(2,6-Dimethoxyphenyl)-2-(6-ethoxypyridin-2-yl)-5-vinyl-1H-imidazo[4,5-b]pyrazin-6-yl)methanesulfonamide]
1 to 100 | CCOc1cccc(-c2nc3nnc(NS(C)(=O)=O)c(C)c3n2-c2c(OC)cccc2OC)n1 [Example 139, N-(7-(2,6-Dimethoxyphenyl)-8-(6-ethoxypyridin-2-yl)-6-methyl-7H-imidazo[4,5-c]pyridazinyl)methanesulfonamide]
1 to 100 | CCOc1cccc(-c2nc3nc(CO)c(NS(C)(=O)=O)nc3n2-c2c(OC)cccc2OC)n1 [Example 140, N-(1-(2,6-Dimethoxyphenyl)-2-(6-ethoxypyridin-2-yl)-5-(hydroxymethyl)-1H-imidazo[4,5-b]pyrazin-6-yl)methanesulfonamide]
1 to 100 | CCOc1cccc(-c2nc3nc(COC(F)F)c(NS(C)(=O)=O)nc3n2-c2c(OC)cccc2OC)n1 [Example 141, N-(5-((Difluoromethoxy)methyl)-1-(2,6-dimethoxyphenyl)-2-(6-ethoxypyridin-2-yl)-1H-imidazo[4,5-b]pyrazin-6-yl)methanesulfonamide]
1 to 100 | CCOc1cccc(-c2nc3nc(Cl)c(NS(=O)(=O)Cc4cccc(F)c4)nc3n2-c2c(OC)cccc2OC)n1 [Example 143, N-(5-Chloro-1-(2,6-dimethoxyphenyl)-2-(6-ethoxypyridin-2-yl)-1H-imidazo[4,5-b]pyrazin-6-yl)-1-(3-fluorophenyl)methanesulfonamide]
< 1 | CCOc1cccc(-c2nc3nnc(NS(=O)(=O)Cc4ncc(Cl)cn4)cc3n2-c2c(OC)cccc2OC)n1 [Example 144, 1-(5-Chloropyrimidin-2-yl)-N-(7-(2,6-dimethoxyphenyl)-8-(6-ethoxypyridin-2-yl)-7H-imidazo[4,5-c]pyridazinyl)methanesulfonamide]
